Results as given in ChEMBL document CHEMBL1147709, “Arylanthranilodinitriles: a new biaryl class of antileishmanial agents” (2006).

Columns and labels:
Type in all cases: functional
Leishmania donovani [1] = assay: Antileishmanial activity against Leishmania donovani amastigotes at 20 ug/ml
Leishmania donovani [2] = assay: Antileishmanial activity against Leishmania donovani promastigotes at 8 ug/ml
Leishmania donovani [3] = assay: Antileishmanial activity against Leishmania donovani promastigotes at 4 ug/ml
Leishmania donovani [4] = assay: Antileishmanial activity against Leishmania donovani promastigotes at 2 ug/ml

## COc1ccc(-c2c(C)c(C#N)c(N)c(C#N)c2SC)cc1OC
Leishmania donovani [1]
  inhibition at 20 µg/mL: 53%
Leishmania donovani [2]
  inhibition at 8 µg/mL: 69%
Leishmania donovani [3]
  inhibition at 4 µg/mL: 60%

## CSc1c(C)c(-c2ccc(Cl)cc2)c(C#N)c(N)c1C#N
Leishmania donovani [1]
  inhibition at 20 µg/mL: 10%
Leishmania donovani [2]
  inhibition at 8 µg/mL: 50%
Leishmania donovani [3]
  inhibition at 4 µg/mL: 46%

## CSc1c(C#N)c(N)c(C#N)c(C)c1-c1ccc(F)cc1
Leishmania donovani [1]
  inhibition at 20 µg/mL: 62%
Leishmania donovani [2]
  inhibition at 8 µg/mL: 65%
Leishmania donovani [3]
  inhibition at 4 µg/mL: 43%

## CSc1c(C)c(-c2ccccc2)c(C#N)c(N)c1C#N
Leishmania donovani [1]
  inhibition at 20 µg/mL: 23%
Leishmania donovani [2]
  inhibition at 8 µg/mL: 48%
Leishmania donovani [3]
  inhibition at 4 µg/mL: 25%

## CSc1c(C#N)c(N)c(C#N)c(C)c1-c1ccccc1F
Leishmania donovani [1]
  inhibition at 20 µg/mL: 61%
Leishmania donovani [2]
  inhibition at 8 µg/mL: 60%
Leishmania donovani [3]
  inhibition at 4 µg/mL: 37%

## COc1ccc(-c2c(C)c(C#N)c(N)c(C#N)c2SC)c(OC)c1
Leishmania donovani [1]
  inhibition at 20 µg/mL: 56%
Leishmania donovani [2]
  inhibition at 8 µg/mL: 59%
Leishmania donovani [3]
  inhibition at 4 µg/mL: 36%

## COc1ccc(-c2c(C)c(SC)c(C#N)c(N)c2C#N)cc1
Leishmania donovani [1]
  inhibition at 20 µg/mL: 25%
Leishmania donovani [2]
  inhibition at 8 µg/mL: 53%
Leishmania donovani [3]
  inhibition at 4 µg/mL: 31%

## CSc1c(C#N)c(N)c(C#N)c(C)c1-c1ccc(C(F)(F)F)cc1
Leishmania donovani [1]
  inhibition at 20 µg/mL: 70%
Leishmania donovani [2]
  inhibition at 8 µg/mL: 83%
Leishmania donovani [3]
  inhibition at 4 µg/mL: 67%

## N=C(N)c1ccc(OCCCCCOc2ccc(C(=N)N)cc2)cc1 [PENTAMIDINE]
Leishmania donovani [4]
  inhibition at 2 µg/mL: 71%
Leishmania donovani [1]
  inhibition at 20 µg/mL: 48%
